# Patent US12251427B2, “Reduced oxygen carriers and their use for the treatment of carboxyhemoglobinemia” (priority 2016, dated 2025)
# pKd: −log10 of the molar value.
# Columns and labels:
# [1] = system: isolated liver mitochondria; assay: Mitochondrial respiration, Clark-type oxygen electrode, isolated liver mitochondria; design: species or system rat; conditions: for reduction of respiration: tissue not specified
# Procedure: Mitochondrial respiration was measured before and after CO gas exposure in a Clark-type oxygen electrode respirometry system. The effects of infusion of both reduced hemoglobin and myoglobin were evaluated. Fresh liver was collected from a normal rat, and mitochondria were isolated through differential centrifugation. For left ventricle (LV) tissue, fresh LV was collected from a normal rat and then homogenized. The resulting mitochondria and LV tissue was put into the Clark-type electrode air tight reaction chamber, then substrates (succinate (mitochondria) or malate and pyruvate (LV) and ADP) were added. Mitochondria respired to 0% oxygen and then the system was reoxygenated with a pipetted injection of room air. Mitochondria respired back down to the desired 02 concentration. At this point, CO was added, either in gas form or saturated PBS solution. The system was then reoxygenated, and respiration occurred down to 0%. These rates of respiration were compared with pre-CO exposure. The reason for the first reoxygenation step was to more equally compare rates of mitochondria that have experienced some hypoxia, which can damage their function. After this was completed, CO scavenging agents were added, the system was reoxygenated and this final rate of respiration was compared both to pre-CO and post-CO respiration.
# CO was then infused, the system was reoxygenated, and rates of respiration were compared. After respiration to 0% 02, myoglobin was infused, the system was reoxygenated and the rates were compared.
# CO poisoning has long term effects on patients, and one theory is the poisoning of mitochondria leads to generation of increased reactive oxygen species (ROS) through the inhibition of complex IV of the electron transport chain. A model to measure the amount of inhibition produced by CO exposure and quantify it through respiratory rates was developed. In a Clark electrode, the oxygen respiration of isolated mitochondria from rat livers and left ventricle (LV) homogenate was measured, with the addition of the substrates succinate and ADP to measure maximal respiration. […] This effect was stronger in more hypoxic states, consistent with the known competition between CO and O2 for binding at the heme in cytochrome c oxidase (62% reduction in hypoxia versus ˜50% in normoxia).
# LV homogenate = assay: Cardiac tissue respiration, Clark-type oxygen electrode, LV homogenate; design: species or system rat; conditions: CO gas versus air
# Procedure: Mitochondrial respiration was measured before and after CO gas exposure in a Clark-type oxygen electrode respirometry system. The effects of infusion of both reduced hemoglobin and myoglobin were evaluated. Fresh liver was collected from a normal rat, and mitochondria were isolated through differential centrifugation. For left ventricle (LV) tissue, fresh LV was collected from a normal rat and then homogenized. The resulting mitochondria and LV tissue was put into the Clark-type electrode air tight reaction chamber, then substrates (succinate (mitochondria) or malate and pyruvate (LV) and ADP) were added. Mitochondria respired to 0% oxygen and then the system was reoxygenated with a pipetted injection of room air. Mitochondria respired back down to the desired 02 concentration. […]
# CO poisoning has long term effects on patients, and one theory is the poisoning of mitochondria leads to generation of increased reactive oxygen species (ROS) through the inhibition of complex IV of the electron transport chain. A model to measure the amount of inhibition produced by CO exposure and quantify it through respiratory rates was developed. In a Clark electrode, the oxygen respiration of isolated mitochondria from rat livers and left ventricle (LV) homogenate was measured, with the addition of the substrates succinate and ADP to measure maximal respiration. […]
# [2] = cited from earlier work; for pKd: CO; for kon: rate of CO binding; for koff: rate of CO dissociation
# [3] = system: mice exposed to 30,000 ppm (3%) CO gas; assay: Severe CO poisoning mouse model: survival and hemodynamics; format: in vivo; conditions: for effect on hemodynamic collapse (heart rate, mean arterial blood pressure) induced by CO: infusion after 4.5 minutes of 3% CO
# Procedure: To establish a model for cardiovascular and mortality end points, tracheally intubated, ventilated, anesthetized mice were exposed to 30,000 ppm (3%) CO gas, with 21% oxygen and 1.5% isoflurane for 4.5 minutes. Mice were surgically instrumented with placement of jugular venous (for infusion of drug) and carotid arterial (for blood pressure and heart rate monitoring) catheters. In this model, there was 88.2% (15/17) mortality in a group infused with 300 μL of PBS post exposure, while all mice that received an infusion of 11 mM myoglobin survived (0% mortality; n=5). Survival of mice infused with myoglobin was due to the reversal in hemodynamic collapse and bradycardia induced by CO (FIG. 5).
# (§1) Tracheally intubated, ventilated, anesthetized mice were exposed to 30,000 ppm (3%) CO gas, with 21% oxygen and 1.5% isoflurane for 4.5 minutes. Mice were surgically instrumented with placement of jugular venous (for infusion of drug) and carotid arterial (for blood pressure and heart rate monitoring) catheters. In this model, all mice that received PEG-Hb (n=3) survived. The concentration infused was 10 mM at approximately 200 to 250 microliters volume.
# HbCO = assay: Severe CO poisoning mouse model: HbCO level by spectrometry; format: in vivo, mice; conditions: Example 9
# Procedure: To establish a model for cardiovascular and mortality end points, tracheally intubated, ventilated, anesthetized mice were exposed to 30,000 ppm (3%) CO gas, with 21% oxygen and 1.5% isoflurane for 4.5 minutes. Mice were surgically instrumented with placement of jugular venous (for infusion of drug) and carotid arterial (for blood pressure and heart rate monitoring) catheters.
# (§2) Through the jugular venous catheter, the HbCO level was sampled using spectrometry. […] Mouse half-life for CO is much faster than for humans.
# as §1, with “In this model, all mice that received PEG-Hb (n=3) survived.” left out
# as §2
# [4] = Safety of oxygen carriers in healthy mice; format: in vivo
# Procedure: Healthy mice were anesthetized with 3% isoflurane gas and myoglobin and hemoglobin were injected into the retro-orbital space. […] At 48 hours, the animals were sacrificed, their serum was analyzed for blood chemistries and whole blood was tested for complete blood count.
molecule,measurement,setting,value
"[C-]#[O+] [CO, carbon monoxide]",decrease of respiration from pre-CO (maximal) respiration,[1]; CO gas versus room air,60.5%
same,reduction of respiration,[1]; hypoxia,62%
same,reduction of respiration,[1]; normoxia,~50%
same,decrease of respiration from pre-CO (maximal) respiration,LV homogenate,75.6%
"Human Hb (alpha subunit, R-state): human hemoglobin alpha subunit, R-state",pKd,[2],8.70
same,kon,[2],6e+06 M⁻¹ s⁻¹
same,koff,[2],0.012 s⁻¹
"Human Hb (alpha subunit, T-state): human hemoglobin alpha subunit, T-state",pKd,[2],5.76
same,kon,[2],120000 M⁻¹ s⁻¹
same,koff,[2],0.21 s⁻¹
"Human Hb (beta subunit, R-state): human hemoglobin beta subunit, R-state",pKd,[2],9.02
same,kon,[2],7.4e+06 M⁻¹ s⁻¹
same,koff,[2],0.007 s⁻¹
"Human Hb (beta subunit, T-state): human hemoglobin beta subunit, T-state",pKd,[2],5.42
same,kon,[2],50000 M⁻¹ s⁻¹
same,koff,[2],0.19 s⁻¹
PEG-Hb: surface conjugation of polyethylene glycol to human hemoglobin; artificial oxygen carrier,survival,"[3]; 10 mM, approximately 200 to 250 microliters, n=3",survived
same,"effect on hemodynamic collapse (heart rate, mean arterial blood pressure) induced by CO",[3],restored
same,HbCO level,HbCO; five minutes after infusion,66%
same,HbCO level,HbCO; ten minutes after treatment,62%
"hemoglobin: hemoglobin, natural oxygen carrier, infused in reduced (deoxy) form as CO scavenger",increase of respiration from the CO inhibited rate,"[1]; 0.5 equimolar, after CO gas",95%
same,survival,[3]; infused with <4 mM,died
same,survival,[3]; infused with ≥4 mM,all survived
same,"effect on hemodynamic collapse (heart rate, mean arterial blood pressure) induced by CO",[3],reversed
same,tolerability of infusion,"[4]; retro-orbital injection, 8-12 mM, observed for 48 hours",well tolerated
same,blood chemistries,[4]; serum at 48 hours,normal kidney and liver function
same,hematology profile,[4]; whole blood at 48 hours,only a slight decline in platelets
